# Assays:
# isolated aorta of rat = assay: Relaxing effect on isolated rat aorta rings pre-contracted with phenylephrine; type: cell-based; conditions: rat aorta with endothelium previously treated with phenylephrine; cumulative concentrations 1 to 1000 nM; FIG. 2
# Description: Experiments used male Wistar rats weighing between 300-350 g. The animals were maintained in an environment with humidity (60-80%) and controlled temperature (22±2° C.), with light-dark cycles of 12 hours and free access to water and rations. Before experiments, the animals were acclimatized in the laboratory for a minimum period of 1 hour. Each animal was used only one time in each test.
# The animals were sacrificed by deepening anesthesia with ketamine and xylazine hydrochloride, followed by exsanguination made by section of the carotid artery. After opening of the thoracic cavity, the aorta was carefully removed and transferred to a Petri dish containing Krebs-Henseleit solution, with the following composition (mM): NaCI-118; KCl 4.7; CaCl2 2.5; MgSO4 1.2; KH2PO4 0.9; NaHCO3 25; glucose 11. Afterwards, adipose and adjacent connective tissues were carefully removed. […]
# After a period of equilibrium of 60 minutes, the preparations were treated with phenylephrine (0.3-1 μM), and after stabilization of the tonic contraction of the preparation, the integrity of the vascular endothelium was evaluated by the capacity of acetylcholine (ACh, 1 μM) to induce relaxation in the preparations. […]
# [1] = system: isolated cavernous body of rabbit; assay: Relaxing effect on isolated cavernous body of rabbit pre-contracted with phenylephrine; type: cell-based; conditions: cumulative concentrations 1 to 1000 nM
# Description: Experiments used male rabbits weighing between 3.5 and 4.0 Kg. The animals were anesthetized with sodium pentobarbital (40 mg/kg, i.p), and the abdominal cavity opened for the withdrawal of the penis from the animals. The tissues were placed in a Petri dish containing Krebs-Henseleit solution pH 7.4 (NaCl 118 mM; KCl 4.8 mM; CaCl2 2.5 mM; MgSO4 1.2 mM; KH2PO4 0.9 mM; NaHCO3 25 mM; glucose 11 mM) warmed to 37° C., and cartilage and adherent tissue were carefully removed. In general 3 segments containing approximately 2 cm of length of cavernous body were obtained from each animal. The preparations were mounted on glass reservoirs containing 5 ml of Krebs solution containing indomethacin (5.6 μM) at 37° C., continuously aerated with a mixture of 95% of O2 and 5% of CO2.
# The preparations were submitted to a period of equilibrium of at least 90 minutes, under tension of 2 g, during which the bath solution was renewed each 15 minutes. Changes of isometric tension were registered using a TRI-201 force transducer (Letica Scientific Instruments, Spain) connected a polygraph.
# After the period of stabilization, the preparations were treated with single concentrations of […] of phenylephrine. […]
# The relaxation responses caused by the compounds were calculated in relation to the contractile response of phenylephrine, which is considered as 100% of contraction. […]
# [2] = system: spontaneous erections in male rats; assay: Test of sexual behavior in rats (spontaneous erections) after oral administration; type: in vivo, rat; conditions: 10 mg/kg oral, observed for 1 hour in presence of females, significantly increased compared to vehicle, average±SEM, FIG. 3
# Description: The utilized protocol was adapted from literature articles (Hosseinzadeh et al., 2008; Rizzo et al., 2008). Two days before execution of experiments, couples of males and females were isolated in plastic boxes. In this period, males were housed for 1 hour per day in reinforced metal cages, rectangular with dimensions of 40×23×33 cm. On the day of the test, the male rats were treated with 10 mg/kg (oral) of compound BL-122 or only with vehicle (saline containing 10% of DMSO). Immediately afterwards, animals were placed in observation cages. The rats that received treatment by oral route were fasted for 4 hours before the test. One and a half (1.5) hours after the oral treatment, the females were placed with the respective males in the cages.
compound,measurement,setting,value
"CN1CC(=O)N[C@H](Cc2c(C(=O)c3ccc4c(c3)OCO4)[nH]c3ccccc23)C1=O [Compound BL-122, (R)-3-((2-(benzo[d][1,3]dioxol-5-carbonyl)-1H-indol-3-yl)methyl)-1-methylpiperazine-2,5-dione]",relaxation of rat aorta preparations,isolated aorta of rat,promoted relaxation
same,EC50,"[1]; Oryctolagus cuniculus, cavernous body of rabbit previously contracted with phenylephrine, value with interval in brackets",15.9 nM
same,maximum relaxation (efficacy),"[1]; cavernous body of rabbit previously contracted with phenylephrine (contraction = 100%), average±SEM",63.1±7.8%
same,spontaneous erections,[2],about 6.4±2.0
